{
  "source": "ChEMBL document CHEMBL4419169",
  "about": "“Novel Ferroportin Inhibitors” (2018)",
  "key": {"Mus musculus [1]": {"system": "Mus musculus", "experiment": "Prevention of iron overload in beta2-microglobulin deficient male mouse assessed as increase in spleen iron accumulation at 60 mg/kg, po BID pre-dosed followed by exposure to iron-containing water and same regime was repeated for 14 days relative to control", "assay_type": "functional"}, "Mus musculus [2]": {"system": "Mus musculus", "experiment": "Correction of anemia in mouse model of transfusion-independent beta-thalassemia intermedia assessed as hemoglobin levels at 60 mg/kg, po BID for 46 days and measured at day 20 to 48 (reference value: 70 to 80 g/L)", "assay_type": "functional"}, "Mus musculus [3]": {"system": "Mus musculus", "experiment": "Disease modifying capacity in mouse model of transfusion-independent beta-thalassemia intermedia assessed as decrease in [58Fe] spleen iron content at 20 mg/kg, po BID for 46 days relative to control", "assay_type": "functional", "set-up": "scale not given: the % may be the effect or the level left"}, "Mus musculus [4]": {"system": "Mus musculus", "experiment": "Disease modifying capacity in mouse model of transfusion-independent beta-thalassemia intermedia assessed as increase in blood erythrocyte counts at 60 mg/kg, po BID for 46 days relative to control", "assay_type": "functional"}, "Mus musculus [5]": {"system": "Mus musculus", "experiment": "Prevention of iron overload in beta2-microglobulin deficient female mouse assessed as increase in spleen iron accumulation at 60 mg/kg, po BID pre-dosed followed by exposure to iron-containing water and same regime was repeated for 14 days relative to control", "assay_type": "functional"}, "Rattus norvegicus [6]": {"system": "Rattus norvegicus", "experiment": "Prevention of iron absorption in anemic Wistar rat model of iron absorption assessed as inhibition of increase in serum iron at 10 mg/kg, po pre-dosed 1 hr before ferrous sulfate dosing and measured 3 hours after iron dosing", "assay_type": "functional"}, "Mus musculus [7]": {"system": "Mus musculus", "experiment": "Disease modifying capacity in mouse model of transfusion-independent beta-thalassemia intermedia assessed as decrease in leukocyte counts level at 20 mg/kg, po BID for 46 days relative to control", "assay_type": "functional", "set-up": "scale not given: the % may be the effect or the level left"}, "Mus musculus [8]": {"system": "Mus musculus", "experiment": "Prevention of hyperferremia in iron overloaded beta2-microglobulin deficient mouse assessed as reduction in serum iron level at 50 mg/kg, po measured after 3 hrs relative to control", "assay_type": "functional, organism-based"}, "Mus musculus [9]": {"system": "Mus musculus", "experiment": "Induction of hypoferremia in wild type C57BL/6 mouse assessed as decrease in serum iron levels at 10 mg/kg, po measured after 3 hrs post dose", "assay_type": "functional", "set-up": "scale not given: the % may be the effect or the level left"}, "Mus musculus [10]": {"system": "Mus musculus", "experiment": "Disease modifying capacity in mouse model of transfusion-independent beta-thalassemia intermedia assessed as increase in blood erythrocyte counts at 20 mg/kg, po BID for 46 days relative to control", "assay_type": "functional"}, "Mus musculus [11]": {"system": "Mus musculus", "experiment": "Disease modifying capacity in mouse model of transfusion-independent beta-thalassemia intermedia assessed as decrease in [58Fe] spleen iron content at 60 mg/kg, po BID for 46 days relative to control", "assay_type": "functional", "set-up": "scale not given: the % may be the effect or the level left"}, "Mus musculus [12]": {"system": "Mus musculus", "experiment": "Prevention of iron overload in beta2-microglobulin deficient male mouse assessed as reduction in total liver iron accumulation at 60 mg/kg, po BID pre-dosed followed by exposure to iron-containing water and same regime was repeated for 14 days relative to control", "assay_type": "functional", "set-up": "scale not given: the % may be the effect or the level left"}, "Mus musculus [13]": {"system": "Mus musculus", "experiment": "Prevention of hyperferremia in iron overloaded beta2-microglobulin deficient female mouse assessed as reduction in serum iron level at 60 mg/kg, po measured after 1 hr relative to control", "assay_type": "functional", "set-up": "scale not given: the % may be the effect or the level left"}, "Mus musculus [14]": {"system": "Mus musculus", "experiment": "Disease modifying capacity in mouse model of transfusion-independent beta-thalassemia intermedia assessed as prevention of liver [58Fe] loading at 20 mg/kg, po BID for 46 days relative to control", "assay_type": "functional"}, "Mus musculus [15]": {"system": "Mus musculus", "experiment": "Induction of hypoferremia in wild type C57BL/6 mouse assessed as decrease in serum iron levels at 100 mg/kg, po measured after 3 hrs post dose", "assay_type": "functional", "set-up": "scale not given: the % may be the effect or the level left"}, "Mus musculus [16]": {"system": "Mus musculus", "experiment": "Prevention of iron overload in beta2-microglobulin deficient female mouse assessed as reduction in [58Fe] liver iron accumulation at 60 mg/kg, po BID pre-dosed followed by exposure to iron-containing water and same regime was repeated for 14 days relative to control", "assay_type": "functional", "set-up": "scale not given: the % may be the effect or the level left"}, "[17]": {"biological_target": "T1, Ferroportin (Mus musculus) (UniProt Q9JHI9)", "T1 sequence (whole entry)": "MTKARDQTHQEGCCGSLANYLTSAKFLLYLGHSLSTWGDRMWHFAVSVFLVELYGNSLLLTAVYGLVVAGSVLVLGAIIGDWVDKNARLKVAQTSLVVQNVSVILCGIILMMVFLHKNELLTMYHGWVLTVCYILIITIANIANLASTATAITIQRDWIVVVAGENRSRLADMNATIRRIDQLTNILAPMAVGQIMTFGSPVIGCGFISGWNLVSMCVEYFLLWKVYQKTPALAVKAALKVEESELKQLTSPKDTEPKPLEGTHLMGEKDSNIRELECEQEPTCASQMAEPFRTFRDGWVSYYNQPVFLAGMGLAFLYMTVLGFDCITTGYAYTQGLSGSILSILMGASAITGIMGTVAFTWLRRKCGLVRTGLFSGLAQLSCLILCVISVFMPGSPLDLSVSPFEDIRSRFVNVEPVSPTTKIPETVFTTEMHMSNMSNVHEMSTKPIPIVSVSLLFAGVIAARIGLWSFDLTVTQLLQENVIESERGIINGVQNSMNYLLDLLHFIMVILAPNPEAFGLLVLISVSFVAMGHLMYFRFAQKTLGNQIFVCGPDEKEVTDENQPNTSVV", "experiment": "Inhibition of ferroportin in mouse J774 cells assessed as induce ferroportin ubiquitination and degradation at […] incubated for 120 mins by immunoprecipitation assay", "assay_type": "cell-based"}, "Mus musculus [18]": {"system": "Mus musculus", "experiment": "Prevention of hyperferremia in iron overloaded beta2-microglobulin deficient male mouse assessed as reduction in serum iron level at 60 mg/kg, po measured after 1 hr relative to control", "assay_type": "functional", "set-up": "scale not given: the % may be the effect or the level left"}, "Mus musculus [19]": {"system": "Mus musculus", "experiment": "Disease modifying capacity in mouse model of transfusion-independent beta-thalassemia intermedia assessed as increase in hematocrit levels at 20 mg/kg, po BID for 46 days relative to control", "assay_type": "functional"}, "Rattus norvegicus [20]": {"system": "Rattus norvegicus", "experiment": "Prevention of iron absorption in anemic Wistar rat model of iron absorption assessed as inhibition of increase in serum iron at 100 mg/kg, po pre-dosed 1 hr before ferrous sulfate dosing and measured 3 hours after iron dosing", "assay_type": "functional"}, "Mus musculus [21]": {"system": "Mus musculus", "experiment": "Induction of hypoferremia in wild type C57BL/6 mouse assessed as decrease in serum iron levels at 30 mg/kg, po measured after 3 hrs post dose", "assay_type": "functional", "set-up": "scale not given: the % may be the effect or the level left"}, "[22]": {"biological_target": "T1, Ferroportin (Mus musculus)", "experiment": "Inhibition of ferroportin in mouse J774 cells assessed as induce ferroportin ubiquitination and degradation at […] incubated for 10 mins by immunoprecipitation assay", "assay_type": "cell-based"}, "Mus musculus [23]": {"system": "Mus musculus", "experiment": "Disease modifying capacity in mouse model of transfusion-independent beta-thalassemia intermedia assessed as prevention of liver [58Fe] loading at 60 mg/kg, po BID for 46 days relative to control", "assay_type": "functional"}, "Mus musculus [24]": {"system": "Mus musculus", "experiment": "Disease modifying capacity in mouse model of transfusion-independent beta-thalassemia intermedia assessed as decrease in blood reticulocyte counts at 20 mg/kg, po BID for 46 days relative to control", "assay_type": "functional", "set-up": "scale not given: the % may be the effect or the level left"}, "Mus musculus [25]": {"system": "Mus musculus", "experiment": "Prevention of iron overload in beta2-microglobulin deficient female mouse assessed as reduction in total liver iron accumulation at 60 mg/kg, po BID pre-dosed followed by exposure to iron-containing water and same regime was repeated for 14 days relative to control", "assay_type": "functional", "set-up": "scale not given: the % may be the effect or the level left"}, "Mus musculus [26]": {"system": "Mus musculus", "experiment": "Disease modifying capacity in mouse model of transfusion-independent beta-thalassemia intermedia assessed as decrease in blood reticulocyte counts at 60 mg/kg, po BID for 46 days relative to control", "assay_type": "functional", "set-up": "scale not given: the % may be the effect or the level left"}, "Mus musculus [27]": {"system": "Mus musculus", "experiment": "Disease modifying capacity in mouse model of transfusion-independent beta-thalassemia intermedia assessed as decrease in relative spleen weight at 60 mg/kg, po BID for 46 days relative to control", "assay_type": "functional", "set-up": "scale not given: the % may be the effect or the level left"}, "Mus musculus [28]": {"system": "Mus musculus", "experiment": "Disease modifying capacity in mouse model of transfusion-independent beta-thalassemia intermedia assessed as increase in hematocrit levels at 60 mg/kg, po BID for 46 days relative to control", "assay_type": "functional"}, "Rattus norvegicus [29]": {"system": "Rattus norvegicus", "experiment": "Prevention of iron absorption in anemic Wistar rat model of iron absorption assessed as inhibition of increase in serum iron at 30 mg/kg, po pre-dosed 1 hr before ferrous sulfate dosing and measured 3 hours after iron dosing", "assay_type": "functional"}, "Mus musculus [30]": {"system": "Mus musculus", "experiment": "Prevention of iron overload in beta2-microglobulin deficient male mouse assessed as reduction in [58Fe] liver iron accumulation at 60 mg/kg, po BID pre-dosed followed by exposure to iron-containing water and same regime was repeated for 14 days relative to control", "assay_type": "functional", "set-up": "scale not given: the % may be the effect or the level left"}},
  "note": "Active and inactive are the calls of the source. The calls are words filed in the database; no cut-off is given here.",
  "data": [
    {"compound": "Cl.Cl.Cl.O=C(NCc1ncccc1F)c1csc(CCNCc2nc3ccccc3[nH]2)n1", "values": [
      {"measurement": "Activity", "setting": "Mus musculus [1]", "value": "24 - 36%"},
      {"measurement": "Activity", "setting": "Mus musculus [2]", "value": 13, "unit": "g/L"},
      {"measurement": "Activity", "setting": "Mus musculus [3]", "value": 19, "unit": "%"},
      {"measurement": "Activity", "setting": "Mus musculus [4]", "value": 22, "unit": "%"},
      {"measurement": "Activity", "setting": "Mus musculus [5]", "value": "9 - 85%"},
      {"measurement": "inhibition in vivo at 10 mg/kg", "setting": "Rattus norvegicus [6]", "value": 32, "unit": "%"},
      {"measurement": "Activity", "setting": "Mus musculus [7]", "value": 0, "unit": "%"},
      {"measurement": "Activity", "setting": "Mus musculus [8]", "value": "Active"},
      {"measurement": "Activity", "setting": "Mus musculus [9]", "value": 10, "unit": "%"},
      {"measurement": "Activity", "setting": "Mus musculus [10]", "value": 2, "unit": "%"},
      {"measurement": "Activity", "setting": "Mus musculus [11]", "value": 51, "unit": "%"},
      {"measurement": "Activity", "setting": "Mus musculus [12]", "value": "69 - 85%"},
      {"measurement": "Activity", "setting": "Mus musculus [13]", "value": "32 - 58%"},
      {"measurement": "Activity", "setting": "Mus musculus [14]", "value": 20, "unit": "%"},
      {"measurement": "Activity", "setting": "Mus musculus [15]", "value": 50, "unit": "%"},
      {"measurement": "Activity", "setting": "Mus musculus [16]", "value": "67 - 80%"},
      {"measurement": "inhibition", "setting": "[17]", "value": "Active"},
      {"measurement": "Activity", "setting": "Mus musculus [18]", "value": "10 - 47%"},
      {"measurement": "Activity", "setting": "Mus musculus [19]", "value": 0, "unit": "%"},
      {"measurement": "inhibition in vivo at 100 mg/kg", "setting": "Rattus norvegicus [20]", "value": 97, "unit": "%"},
      {"measurement": "Activity", "setting": "Mus musculus [21]", "value": 30, "unit": "%"},
      {"measurement": "inhibition", "setting": "[22]", "value": "Active"},
      {"measurement": "Activity", "setting": "Mus musculus [23]", "value": 48, "unit": "%"},
      {"measurement": "Activity", "setting": "Mus musculus [24]", "value": 19, "unit": "%"},
      {"measurement": "Activity", "setting": "Mus musculus [25]", "value": "66 - 67%"},
      {"measurement": "Activity", "setting": "Mus musculus [26]", "value": 43, "unit": "%"},
      {"measurement": "Activity", "setting": "Mus musculus [27]", "value": 48, "unit": "%"},
      {"measurement": "Activity", "setting": "Mus musculus [28]", "value": 1, "unit": "%"},
      {"measurement": "inhibition in vivo at 30 mg/kg", "setting": "Rattus norvegicus [29]", "value": 53, "unit": "%"},
      {"measurement": "Activity", "setting": "Mus musculus [30]", "value": "81 - 95%"}
    ]}
  ]
}
